Experiments:
[1] = system: Hela-S3 cells; experiment: Cytotoxicity to Hela-S3 cells (colony formation); format: cell-based; conditions: sensitized 2 hours at 37°C, colonies counted in 72 hours
Description: Hela-S3 cells (1 x 10⁴ cells/ml) were applied to an Eagle's MEM medium or a 10 % fresh calf serum-containing Eagle's MEM medium, and Agrimoniin was added thereto to sensitize the cells at 37°C for 2 hours. The concentration of the Agrimoniin added was variously varied. After sensitization, the cells were washed with Hanks' solution and then incubated in a CO₂ incubator containing a 10 % fresh calf serum-containing Eagle's MEM medium at 37°C for 72 hours. […] In addition, IC₅₀ of Agrimoniin to Hela-S3 cells in the 10 % fresh calf serum-containing Eagle's MEM medium was improved to be 57.4 µg/ml. From these experiments, it is noted that ellagitannins have a relatively strong direct cytotoxic action but the cytotoxic action may be reduced by addition of proteins such as serum to the culture medium.

[2] = system: ddy mice; experiment: LD50 by probit method; format: in vivo
Text: 50 % lethal dose (LD₅₀) of Coriariin A to ddy mice was obtained by probit method.

| Compound | 50 % cell-inhibiting concentration (IC₅₀) ([1]; 10 % fresh calf serum-containing Eagle's MEM medium) | 50 % cell-inhibiting concentration (IC₅₀) ([1]; Eagle's MEM medium) | LD₅₀ ([2]; Intraabdominal, Female) | LD₅₀ ([2]; Intraabdominal, Male) | LD₅₀ ([2]; Intravenous, Female) | LD₅₀ ([2]; Intravenous, Male) | LD₅₀ ([2]; Peroral, Female) | LD₅₀ ([2]; Peroral, Male) |
| --- | --- | --- | --- | --- | --- | --- | --- | --- |
| O=C(O[C@H]1O[C@@H]2COC(=O)c3cc(O)c(O)c(O)c3-c3c(cc(O)c(O)c3O)C(=O)O[C@H]2[C@@H]2OC(=O)c3cc(O)c(O)c(O)c3-c3c(cc(O)c(O)c3O)C(=O)O[C@@H]12)c1cc(O)c(O)c(Oc2c(C(=O)O[C@H]3O[C@@H]4COC(=O)c5cc(O)c(O)c(O)c5-c5c(cc(O)c(O)c5O)C(=O)O[C@H]4[C@@H]4OC(=O)c5cc(O)c(O)c(O)c5-c5c(cc(O)c(O)c5O)C(=O)O[C@@H]34)cc(O)c(O)c2O)c1 [Agrimoniin] | 57.4 µg/mL | 7.3 µg/mL | – | – | – | – | – | – |
| O=C(O[C@@H]1O[C@@H]2COC(=O)c3cc(O)c(O)c(O)c3-c3c(cc(O)c(O)c3O)C(=O)O[C@H]2[C@H](OC(=O)c2cc(O)c(O)c(O)c2)[C@H]1OC(=O)c1cc(O)c(O)c(O)c1)c1cc(O)c(O)c(Oc2c(C(=O)O[C@H]3O[C@@H]4COC(=O)c5cc(O)c(O)c(O)c5-c5c(cc(O)c(O)c5O)C(=O)O[C@H]4[C@H](OC(=O)c4cc(O)c(O)c(O)c4)[C@H]3OC(=O)c3cc(O)c(O)c(O)c3)cc(O)c(O)c2O)c1 [Coriariin A] | – | – | 119.1 mg/kg | 120.2 mg/kg | 36.8 mg/kg | 37.5 mg/kg | 1000 or more mg/kg | 1000 or more mg/kg |
